Reference: the NIST ThermoML archive (doi:10.1021/je8008864)
Numbers after ± are expanded uncertainties.

Assay: mn = molality of the nth substance listed, in mol/kg
Conditions: 101 kPa, Liquid; for viscosity: Rotational; for mass density: Vibrating tube method

CC(CN(C)C)CN1c2ccccc2CCc2ccccc21.O=C(O)/C=C\C(=O)O (centres undefined) [trimipramine maleate] + O
Conditions	mass density [kg/m3]	viscosity [mPa·s]
293.15 K, m1 = 0.0075	998.499 ± 0.11	1.035 ± 0.006
293.15 K, m1 = 0.01	998.566 ± 0.11	1.035 ± 0.006
293.15 K, m1 = 0.0125	998.625 ± 0.11	1.036 ± 0.006
293.15 K, m1 = 0.0152	998.675 ± 0.11	1.036 ± 0.006
293.15 K, m1 = 0.0175	998.715 ± 0.11	1.037 ± 0.006
293.15 K, m1 = 0.02	998.745 ± 0.1	1.038 ± 0.006
293.15 K, m1 = 0.025	998.799 ± 0.1	1.04 ± 0.006
298.15 K, m1 = 0.0076	997.329 ± 0.12	0.937 ± 0.006
298.15 K, m1 = 0.01	997.396 ± 0.11	0.9373 ± 0.006
298.15 K, m1 = 0.0125	997.455 ± 0.11	0.9376 ± 0.006
298.15 K, m1 = 0.0152	997.499 ± 0.11	0.9379 ± 0.006
298.15 K, m1 = 0.0175	997.535 ± 0.11	0.9382 ± 0.006
298.15 K, m1 = 0.02	997.569 ± 0.11	0.9385 ± 0.006
298.15 K, m1 = 0.025	997.601 ± 0.1	0.9393 ± 0.006
303.15 K, m1 = 0.0076	995.919 ± 0.12	0.8339 ± 0.006
303.15 K, m1 = 0.01	995.981 ± 0.11	0.8342 ± 0.006
303.15 K, m1 = 0.0125	996.031 ± 0.11	0.8345 ± 0.006
303.15 K, m1 = 0.0152	996.081 ± 0.11	0.8348 ± 0.006
303.15 K, m1 = 0.0175	996.105 ± 0.11	0.835 ± 0.006
303.15 K, m1 = 0.02	996.141 ± 0.11	0.8354 ± 0.006
303.15 K, m1 = 0.025	996.175 ± 0.1	0.8361 ± 0.006
308.15 K, m1 = 0.0076	994.296 ± 0.11	0.7339 ± 0.006
308.15 K, m1 = 0.01	994.355 ± 0.11	0.7341 ± 0.006
308.15 K, m1 = 0.0125	994.401 ± 0.11	0.7343 ± 0.006
308.15 K, m1 = 0.0152	994.455 ± 0.11	0.7346 ± 0.006
308.15 K, m1 = 0.0175	994.475 ± 0.11	0.7348 ± 0.006
308.15 K, m1 = 0.02	994.515 ± 0.11	0.7351 ± 0.006
308.15 K, m1 = 0.025	994.535 ± 0.1	0.7355 ± 0.006
310.15 K, m1 = 0.0076	993.58 ± 0.11	0.6928 ± 0.006
310.15 K, m1 = 0.01	993.638 ± 0.11	0.693 ± 0.006
310.15 K, m1 = 0.0125	993.681 ± 0.11	0.6932 ± 0.006
310.15 K, m1 = 0.0152	993.721 ± 0.11	0.6934 ± 0.006
310.15 K, m1 = 0.0175	993.749 ± 0.11	0.6937 ± 0.006
310.15 K, m1 = 0.02	993.769 ± 0.11	0.6939 ± 0.006
310.15 K, m1 = 0.025	993.799 ± 0.1	0.6943 ± 0.006
313.15 K, m1 = 0.0076	992.458 ± 0.11	0.6561 ± 0.006
313.15 K, m1 = 0.01	992.506 ± 0.11	0.6564 ± 0.006
313.15 K, m1 = 0.0125	992.551 ± 0.11	0.6566 ± 0.006
313.15 K, m1 = 0.0152	992.589 ± 0.11	0.6568 ± 0.006
313.15 K, m1 = 0.0175	992.609 ± 0.11	0.6571 ± 0.006
313.15 K, m1 = 0.02	992.615 ± 0.11	0.6573 ± 0.006
313.15 K, m1 = 0.025	992.635 ± 0.11	0.6579 ± 0.006
